Experimental data: ChEMBL document CHEMBL1148195, “Chemical investigation of predator-deterred macroalgae from the Antarctic peninsula” (2004)
Active and inactive are the calls of the source. No cut-off for these calls is given here.

How the values were obtained:
Format in all cases: functional
[1] = test system: Staphylococcus aureus; assay: Antibacterial activity against methicillin-sensitive Staphylococcus aureus 375 at 200 ug/spot after 18 hrs by agar diffusion method
[2] = test system: Candida albicans; assay: Antimicrobial activity against Candida albicans 54 at 200 ug/spot after 18 hrs by agar diffusion method
[3] = test system: Escherichia coli; assay: Antibacterial activity against permeability mutant Escherichia coli 389 at 200 ug/spot after 18 hrs by agar diffusion method
[4] = test system: Enterococcus faecium; assay: Antibacterial activity against vancomycin-resistant Enterococcus faecium 379 at 200 ug/spot after 18 hrs by […]
[5] = test system: Staphylococcus aureus; assay: Antibacterial activity against methicillin-resistant Staphylococcus aureus 310 at 200 ug/spot after 18 hrs by agar diffusion method

Structure (SMILES)	Activity [1]	Activity [2]	Activity [3]	inhibition zone (IZ) [4] [mm]	Activity [5]	inhibition zone (IZ) [2] [mm]	inhibition zone (IZ) [1] [mm]	inhibition zone (IZ) [3] [mm]	inhibition zone (IZ) [5] [mm]	Activity [4]
CC(C)(Br)[C@@H](Cl)C[C@H](Br)[C@](C)(Cl)/C=C/Br [ANVERENE]	inactive	inactive	inactive	8	inactive					
C[C@@](Cl)(/C=C/Br)[C@H]1CO[C@@](C)(O)[C@@H](Br)C1						8				
CCC[C@@H](O)C1=C(Br)/C(=C\Br)OC1=O [HYDROXYFIMBROLIDE]				14		25	23	9	23	
CCC[C@@H](OC(C)=O)C1=C(Br)/C(=C\Br)OC1=O [ACETOXYFIMBROLIDE]				16		17	24	9	25	
CCCCC1=C(Br)/C(=C\Br)OC1=O [FIMBROLIDE]		inactive	inactive				7		7	inactive
CC1=CC(=O)C=C(C/C=C(\C)CC/C=C(\C)CC/C=C(\C)CC/C=C(\C)C(=O)O)C1=O [MENZOQUINONE]				7			6		8	
